The values that follow come from patent US20150080466A1, “DIPHENYL UREA DERIVATIVES AS FORMYL PEPTIDE RECEPTOR MODULATORS” (Allergan, Inc., priority 2013, published 2015).

The target in this test is T1, FPR2 (Homo sapiens, UniProt P25090).
T1 construct: expressed in transfected cells
T1 sequence (P25090 1-351): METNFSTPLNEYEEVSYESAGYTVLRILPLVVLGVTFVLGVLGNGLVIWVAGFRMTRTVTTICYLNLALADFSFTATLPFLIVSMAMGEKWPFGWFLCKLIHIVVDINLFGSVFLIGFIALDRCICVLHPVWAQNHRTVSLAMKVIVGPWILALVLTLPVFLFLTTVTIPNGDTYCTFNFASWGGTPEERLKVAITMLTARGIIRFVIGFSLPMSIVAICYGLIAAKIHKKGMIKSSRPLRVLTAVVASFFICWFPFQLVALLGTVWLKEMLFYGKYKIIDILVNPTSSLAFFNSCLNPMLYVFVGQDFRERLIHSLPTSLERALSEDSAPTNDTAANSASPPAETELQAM
As to the kind of experiment: Compound-induced calcium activity on FLIPR Tetra in CHO-Gα16 cells stably expressing FPRL1. The note with it: for FPR2 Ga16-CHO (Rel. eff.): relative efficacy; for EC50: tested at 0.61 to 10,000 nM, read-out: FPR2 Ga16-CHO EC50. It counts as cell-based. How it is done:
CHO-Gα16 cells stably expressing FPRL1 were cultured in (F12, 10% FBS, 1% PSA, 400 μg/ml geneticin and 50 μg/ml hygromycin) and HEK-Gqi5 cells stable expressing FPR1 were cultured in (DMEM high glucose, 10% FBS, 1% PSA, 400 μg/ml geneticin and 50 μg/ml hygromycin). In general, the day before the experiment, 18,000 cells/well were plated in a 384-well clear bottom poly-d-lysine coated plate. The following day the screening compound-induced calcium activity was assayed on the FLIPR^Tetra. The drug plates were prepared in 384-well microplates using the EP3 and the MultiPROBE robotic liquid handling systems. Compounds were tested at concentrations ranging from 0.61 to 10,000 nM. Results are expressed as EC50 (nM) and efficacy values.

As for `O=C(O)CCc1ccccc1NC(=O)Nc1ccc(Br)cc1` [Compound 1, 3-(2-{[(4-Bromophenyl)carbamoyl]amino}phenyl)propanoic Acid], the “FPR2 Ga16-CHO (Rel. eff.)” value was “(1.00)” and the EC50 amounted to 1230 nM.

Regarding `COC(=O)CCCNC(=O)CCc1ccccc1NC(=O)Nc1ccc(Br)cc1` [Compound 2, Methyl 4-{[3-(2-{[(4-Bromophenyl)carbamoyl]amino}phenyl)propanoyl]amino}butanoate], the “FPR2 Ga16-CHO (Rel. eff.)” value is reported as “(0.96)” and the EC50 is 922 nM.

`COC(=O)CCNC(=O)CCc1ccccc1NC(=O)Nc1ccc(Br)cc1` [Compound 3, Methyl3-{[3-(2-{[(4-bromophenyl)carbamoyl]amino}phenyl)propanoyl]amino}propanoate]: the “FPR2 Ga16-CHO (Rel. eff.)” value is on record as “(1.00)” and the EC50 stood at 311 nM.

Consider `O=C(O)CCCNC(=O)CCc1ccccc1NC(=O)Nc1ccc(Br)cc1` [Compound 4, 4-{[3-(2-{[(4-Bromophenyl)carbamoyl]amino}phenyl)propanoyl]amino}butanoic Acid], for which the “FPR2 Ga16-CHO (Rel. eff.)” value is “(0.99)” and the EC50 was 2040 nM.

Regarding `O=C(O)CCNC(=O)CCc1ccccc1NC(=O)Nc1ccc(Br)cc1` [Compound 5, 3-{[3-(2-{[(4-Bromophenyl)carbamoyl]amino}phenyl)propanoyl]amino}propanoic acid], the “FPR2 Ga16-CHO (Rel. eff.)” value is listed as “(1.00)” and the EC50 came to 637 nM.

As to `COC(=O)CNC(=O)CCc1ccccc1NC(=O)Nc1ccc(Br)cc1` [Compound 6, Methyl {[3-(2-{[(4-bromophenyl)carbamoyl]amino}phenyl)propanoyl]amino}acetate], the “FPR2 Ga16-CHO (Rel. eff.)” value was “(0.80)” and the EC50 amounted to 180 nM.

Take `O=C(O)CNC(=O)CCc1ccccc1NC(=O)Nc1ccc(Br)cc1` [Compound 7, {[3-(2-{[(4-Bromophenyl)carbamoyl]amino}phenyl)propanoyl]amino}acetic acid]: the “FPR2 Ga16-CHO (Rel. eff.)” value is listed as “(0.76)” and the EC50 worked out at 410 nM.
